Assay: molar heat capacity at saturation pressure

CCCCn1cc[n+](C)c1.Cc1ccc(S(=O)(=O)[O-])cc1 [1-butyl-3-methylimidazolium tosylate]
Conditions | molar heat capacity [J/K/mol]
5.19 K, Crystal 2 | 2.822
5.39 K, Crystal 2 | 3.132
5.69 K, Crystal 2 | 3.579
5.99 K, Crystal 2 | 4.042
6.33 K, Crystal 2 | 4.588
6.71 K, Crystal 2 | 5.224
7.1 K, Crystal 2 | 5.913
7.49 K, Crystal 2 | 6.618
7.88 K, Crystal 2 | 7.372
8.27 K, Crystal 2 | 8.155
8.67 K, Crystal 2 | 8.98
9.06 K, Crystal 2 | 9.831
9.46 K, Crystal 2 | 10.7
9.86 K, Crystal 2 | 11.58
10.37 K, Crystal 2 | 12.77
10.99 K, Crystal 2 | 14.2
11.62 K, Crystal 2 | 15.75
12.24 K, Crystal 2 | 17.23
12.87 K, Crystal 2 | 18.81
13.5 K, Crystal 2 | 20.4
14.13 K, Crystal 2 | 22.01
14.77 K, Crystal 2 | 23.69
15.52 K, Crystal 2 | 25.71
16.38 K, Crystal 2 | 28.11
17.25 K, Crystal 2 | 30.43
18.11 K, Crystal 2 | 32.69
18.98 K, Crystal 2 | 34.95
19.85 K, Crystal 2 | 37.28
21.02 K, Crystal 2 | 40.42
22.47 K, Crystal 2 | 44.36
23.94 K, Crystal 2 | 48.42
25.4 K, Crystal 2 | 52.37
26.86 K, Crystal 2 | 56.28
27.91 K, Crystal 2 | 59.01
29.13 K, Crystal 2 | 62.18
30.61 K, Crystal 2 | 65.96
32.24 K, Crystal 2 | 70.12
34.04 K, Crystal 2 | 74.47
35.85 K, Crystal 2 | 78.78
37.65 K, Crystal 2 | 82.79
39.46 K, Crystal 2 | 86.82
41.36 K, Crystal 2 | 90.86
43.36 K, Crystal 2 | 95.05
45.37 K, Crystal 2 | 99.18
47.37 K, Crystal 2 | 103.21
49.38 K, Crystal 2 | 107.12
51.39 K, Crystal 2 | 110.88
53.4 K, Crystal 2 | 114.57
55.41 K, Crystal 2 | 118.11
57.43 K, Crystal 2 | 121.56
59.46 K, Crystal 2 | 124.97
61.48 K, Crystal 2 | 128.2
63.5 K, Crystal 2 | 131.49
65.48 K, Crystal 2 | 134.6
67.5 K, Crystal 2 | 137.79
69.52 K, Crystal 2 | 140.83
71.55 K, Crystal 2 | 143.85
73.58 K, Crystal 2 | 146.89
75.61 K, Crystal 2 | 149.84
77.64 K, Crystal 2 | 152.66
78.3 K, Crystal 2 | 153.84
78.41 K, Crystal 2 | 154.03
78.68 K, Metastable crystal | 155.18
79.68 K, Crystal 2 | 155.55
80.29 K, Crystal 2 | 156.42
80.4 K, Crystal 2 | 156.6
80.63 K, Crystal 2 | 156.82
80.67 K, Metastable crystal | 157.91
81.72 K, Crystal 2 | 158.34
82.14 K, Crystal 2 | 158.9
82.25 K, Crystal 2 | 158.9
82.53 K, Metastable crystal | 160.36
82.63 K, Crystal 2 | 159.37
83.76 K, Crystal 2 | 161.26
84.01 K, Crystal 2 | 161.35
84.11 K, Crystal 2 | 161.51
84.39 K, Metastable crystal | 163.15
84.49 K, Crystal 2 | 161.88
85.88 K, Crystal 2 | 163.77
85.98 K, Crystal 2 | 164.02
86.26 K, Metastable crystal | 165.85
86.36 K, Crystal 2 | 164.39
87.76 K, Crystal 2 | 166.29
87.86 K, Crystal 2 | 166.47
88.14 K, Metastable crystal | 168.4
88.24 K, Crystal 2 | 166.85
89.65 K, Crystal 2 | 168.77
89.74 K, Crystal 2 | 168.83
90.02 K, Metastable crystal | 171.1
90.12 K, Crystal 2 | 169.39
91.54 K, Crystal 2 | 171.25
91.63 K, Crystal 2 | 171.32
91.92 K, Metastable crystal | 173.77
92.02 K, Crystal 2 | 171.84
93.45 K, Crystal 2 | 173.71
93.54 K, Crystal 2 | 173.8
93.82 K, Metastable crystal | 176.53
93.92 K, Crystal 2 | 174.27
95.36 K, Crystal 2 | 176.16
95.45 K, Crystal 2 | 176.25
95.72 K, Metastable crystal | 179.17
95.83 K, Crystal 2 | 176.69
97.28 K, Crystal 2 | 178.64
97.37 K, Crystal 2 | 178.7
97.64 K, Metastable crystal | 181.78
97.75 K, Crystal 2 | 179.08
99.21 K, Crystal 2 | 181.03
99.29 K, Crystal 2 | 181.06
99.55 K, Metastable crystal | 184.48
99.67 K, Crystal 2 | 181.44
101.08 K, Crystal 2 | 183.3
101.16 K, Crystal 2 | 183.36
101.42 K, Metastable crystal | 187.02
101.54 K, Crystal 2 | 183.8
102.89 K, Crystal 2 | 185.56
102.98 K, Crystal 2 | 185.56
103.22 K, Metastable crystal | 189.6
103.36 K, Crystal 2 | 186.06
104.71 K, Crystal 2 | 187.86
104.79 K, Crystal 2 | 187.86
105.03 K, Metastable crystal | 192.05
105.18 K, Crystal 2 | 188.27
106.53 K, Crystal 2 | 190.03
106.61 K, Crystal 2 | 190.07
106.84 K, Metastable crystal | 194.54
107 K, Crystal 2 | 190.5
108.37 K, Crystal 2 | 192.21
108.44 K, Crystal 2 | 192.24
108.66 K, Metastable crystal | 197.08
108.83 K, Crystal 2 | 192.7
110.2 K, Crystal 2 | 194.41
110.27 K, Crystal 2 | 194.41
110.48 K, Metastable crystal | 199.56
110.67 K, Crystal 2 | 194.88
112.03 K, Crystal 2 | 196.58
112.1 K, Crystal 2 | 196.52
112.31 K, Metastable crystal | 201.92
112.5 K, Crystal 2 | 197.14
113.87 K, Crystal 2 | 198.73
113.94 K, Crystal 2 | 198.82
114.13 K, Metastable crystal | 204.5
114.34 K, Crystal 2 | 199.29
115.71 K, Crystal 2 | 200.99
115.78 K, Crystal 2 | 201.09
115.96 K, Metastable crystal | 207.01
116.18 K, Crystal 2 | 201.52
117.56 K, Crystal 2 | 203.23
117.62 K, Crystal 2 | 203.17
117.79 K, Metastable crystal | 209.47
118.02 K, Crystal 2 | 203.66
119.41 K, Crystal 2 | 205.4
119.46 K, Crystal 2 | 205.31
119.62 K, Metastable crystal | 212.17
119.87 K, Crystal 2 | 205.87
121.26 K, Crystal 2 | 207.48
121.3 K, Crystal 2 | 207.51
121.45 K, Metastable crystal | 214.65
121.71 K, Crystal 2 | 208.04
123.11 K, Crystal 2 | 209.71
123.16 K, Crystal 2 | 209.78
123.28 K, Metastable crystal | 217.2
123.56 K, Crystal 2 | 210.24
124.97 K, Crystal 2 | 211.95

— the NIST ThermoML archive (doi:10.1021/je700152c)
